The nature of assay [1]: Trypanosoma cruzi growth suppression in host cells – NIH3T3 host cells, beta-gal luminescence, confirmation (AID 2044).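 Also: intracellular parasites grown in NIH/3T3 mouse fibroblasts as host cells; luminescent beta-galactosidase reporter signal from transgenic T. cruzi replicating inside host cells; inhibitors lower the luminescence signal.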 The class given is functional, cell-based.
The target in assay [2] is T1, High affinity choline transporter 1 (Homo sapiens, UniProt Q9GZV3).
T1 sequence (Q9GZV3 whole entry): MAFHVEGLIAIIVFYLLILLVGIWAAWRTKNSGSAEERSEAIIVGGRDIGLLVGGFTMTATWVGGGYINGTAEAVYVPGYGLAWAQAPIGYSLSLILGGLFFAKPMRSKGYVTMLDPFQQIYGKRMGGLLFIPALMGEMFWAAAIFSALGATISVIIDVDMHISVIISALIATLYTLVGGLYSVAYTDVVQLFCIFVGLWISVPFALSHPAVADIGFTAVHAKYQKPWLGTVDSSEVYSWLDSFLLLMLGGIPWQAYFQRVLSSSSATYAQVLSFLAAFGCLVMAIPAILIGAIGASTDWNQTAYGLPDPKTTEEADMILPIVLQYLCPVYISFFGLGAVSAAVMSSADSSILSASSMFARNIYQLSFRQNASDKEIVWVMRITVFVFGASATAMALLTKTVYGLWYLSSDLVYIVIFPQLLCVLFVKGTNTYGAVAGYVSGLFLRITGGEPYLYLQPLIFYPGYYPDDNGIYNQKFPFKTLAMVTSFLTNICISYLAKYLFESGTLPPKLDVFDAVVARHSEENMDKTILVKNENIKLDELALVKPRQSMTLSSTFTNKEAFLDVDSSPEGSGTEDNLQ
As to the kind of experiment: human choline transporter potentiators, potency – cell-based, 10-point CRC, membrane potential dye, dose response (AID 602376). The class given is functional.

A short description of assay [3]: NIH3T3 cell viability loss – ATP luminescence, mouse fibroblasts, counter-screen, dose response (AID 2010).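 Also: cells exposed to compound for about 90 hours before reading.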 The assay is classed as functional, cell-based. On the technique in general: A counterscreen serves to expose hits that act by an unwanted route or on another target.
Assay [4] can be described thus: bead-based luminescence quenchers, dual-tagged ARNT – biochemical, AlphaScreen, cherry-pick, artefact control for ARNT-TACC3 interaction inhibitor project, dose response (AID 651705).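 Also: AlphaScreen bead proximity signal that flags compounds interfering with the detection technology; potency reflects signal decrease which marks the compound as an assay artifact.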 The class given is functional. In general terms: In Alpha technology, singlet oxygen from a donor bead excites a nearby acceptor bead.
The target of assay [5] is T1, High affinity choline transporter 1. As to the kind of experiment: human choline transporter blockers, potency – cell-based, 5-point CRC, membrane potential dye, dose response (AID 504840). The assay is classed as functional.
Assay [6] has the same target. Description: human choline transporter blockers, potency – cell-based, 10-point CRC, membrane potential dye, dose response (AID 588401).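 Also: membrane potential dye fluorescence of choline-evoked depolarization via CHT.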 The class given is functional.
Assay [7] concerns the target T2, Orexin/Hypocretin receptor type 1 (Homo sapiens, UniProt O43613).
T2 sequence (O43613 whole entry): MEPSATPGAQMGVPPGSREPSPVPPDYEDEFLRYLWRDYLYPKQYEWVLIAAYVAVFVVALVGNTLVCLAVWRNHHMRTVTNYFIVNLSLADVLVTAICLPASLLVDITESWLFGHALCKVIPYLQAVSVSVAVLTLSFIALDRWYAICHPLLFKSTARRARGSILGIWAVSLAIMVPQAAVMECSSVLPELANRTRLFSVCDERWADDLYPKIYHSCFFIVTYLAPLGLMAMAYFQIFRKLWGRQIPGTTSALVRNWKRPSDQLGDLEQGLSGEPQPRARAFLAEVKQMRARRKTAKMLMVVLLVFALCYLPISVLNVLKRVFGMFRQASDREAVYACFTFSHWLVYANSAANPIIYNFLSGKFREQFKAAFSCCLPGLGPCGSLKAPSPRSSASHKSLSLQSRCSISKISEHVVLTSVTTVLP
Description: Fluorescence-based cell-based high throughput dose response assay for antagonists of the orexin 1 receptor (OX1R; HCRTR1). [Related pubchem assays (depositor defined):AID434989, AID435008, AID463079, AID485270, AID492963, AID492964, AID492965, AID493232, AID504717, AID504718]. The assay is classed as functional.

For assay [8], the target named is T3, Orexin receptor type 2 (Homo sapiens, UniProt O43614).
T3 sequence (O43614 whole entry): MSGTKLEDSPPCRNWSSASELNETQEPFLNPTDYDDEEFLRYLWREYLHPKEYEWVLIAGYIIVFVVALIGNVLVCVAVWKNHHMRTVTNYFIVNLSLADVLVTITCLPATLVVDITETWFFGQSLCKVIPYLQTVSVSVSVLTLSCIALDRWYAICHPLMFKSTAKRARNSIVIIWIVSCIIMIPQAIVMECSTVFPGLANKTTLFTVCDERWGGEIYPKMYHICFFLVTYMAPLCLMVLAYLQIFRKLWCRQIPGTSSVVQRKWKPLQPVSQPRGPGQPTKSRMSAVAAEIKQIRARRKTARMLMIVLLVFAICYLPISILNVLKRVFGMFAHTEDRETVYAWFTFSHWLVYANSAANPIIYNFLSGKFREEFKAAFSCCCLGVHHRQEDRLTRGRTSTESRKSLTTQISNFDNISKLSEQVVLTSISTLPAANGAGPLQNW
Description: Counterscreen assay for antagonists of the orexin 1 receptor (OX1R; HCRTR1): Fluorescence-based cell-based dose response assay for antagonists of the orexin 2 receptor (OX2R; HCRTR2), run by assay provider. The class given is functional.

Assay [9] concerns the target T3, Orexin receptor type 2. As to the kind of experiment: Counterscreen assay for antagonists of the orexin 1 receptor (OX1R; HCRTR1): Homogeneous Time Resolved Fluorescence (HTRF)-based cell-based dose response assay for antagonists of the orexin 2 receptor (OX2R; HCRTR2), run by assay provider. The class given is functional.
Assay [10] addresses T2, Orexin/Hypocretin receptor type 1. As to the kind of experiment: Homogeneous Time Resolved Fluorescence (HTRF)-based cell-based high throughput dose response assay for antagonists of the orexin 1 receptor (OX1R; HCRTR1). [Related pubchem assays (depositor defined):AID434989, AID435008, AID463079, AID485270, AID492963, AID492964, AID492965, AID493232, AID504717, AID504718]. The assay is classed as functional. In general terms: In TR-FRET formats the signal depends on donor and acceptor labels being close together.

Assay [11] in a line: Counterscreen for antagonists of the orexin 1 receptor (OX1R; HCRTR1): Fluorescence-based cell-based high throughput dose response assay to identify antagonists of the parental CHO cell line. [Related pubchem assays (depositor defined):AID434989, AID435008, AID463079, AID485270, AID492963, AID492964, AID492965, AID493232, AID504699, AID504701]. The class given is functional.

For the next assay, the system named is CHO-K1. Description: Counterscreen for antagonists of the orexin 1 receptor (OX1R; HCRTR1): Homogeneous time resolved fluorescence (HTRF)-based cell-based dose response assay to identify antagonists of the parental CHO-K1 cell line. [Related pubchem assays (depositor defined):AID434989, AID435008, AID463079, AID485270, AID492963, AID492964, AID492965, AID493232, AID504699, AID504701]. The assay is classed as functional. The following applies: Cricetulus griseus.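 Also: potency for inhibition of ATP-stimulated IP1 production as antagonists.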

The target of a further assay is Interleukin-8 (Homo sapiens, UniProt P10145). As to the kind of experiment: Dose Response confirmation of uHTS small molecule hits for cystic fibrosis induced NFkb Inhibitors in a PAF-induced IL8 counterscreen. The class given is functional. The following applies: read-out: IC50_Mean.

Calls of active or inactive are those of the source.

Sequence of Interleukin-8 (P10145 whole entry): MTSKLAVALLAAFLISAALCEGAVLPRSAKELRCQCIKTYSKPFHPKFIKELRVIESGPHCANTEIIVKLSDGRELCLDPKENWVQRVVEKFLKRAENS

The EC50 is the concentration at which the effect is half-maximal. For the molecule `CCC(C)(C)n1nnnc1C(c1cccnc1)N1CCN(c2cccc(C(F)(F)F)c2)CC1` (stereo not drawn), the EC50 is 0.101 µM (active) in assay [1], 16 µM (active) in assay [2] and > 60 µM (not active) in [3].

A word on the AC50: it is the concentration giving half of the maximal activity seen. Turning to `Cn1c(-c2ccc3c(c2)OCO3)cnc1N`, in [4], the AC50 is 83.7 µM (active).

`COc1ccc(C(=O)c2c3ccc(C(F)(F)F)cc3[n+]([O-])n2CCCN)cc1`: the IC50 is 9.03 µM (active) in [5] and 4.47 µM (active) in [6].

As to `C=CCSC1=C(C#N)C(c2ccccc2Cl)C(C(=O)c2cccs2)C(O)(C(F)(F)F)N1` (stereo not drawn), the IC50 was 1.62 µM (active) in [7]; 10.3 µM (inactive) on Orexin receptor type 2 [8]; 15.2 µM (inactive) at Orexin receptor type 2 [9]; 0.405 µM (active) in assay [10]; 25 µM (inactive) in assay [11]; > 66.2 µM (inactive) in the assay with CHO-K1.

Consider `CC(=O)c1c(C)n(-c2ccc(C)cc2C)c2ccc(O)cc12`, for which, at Interleukin-8, the IC50 is > 79 µM (inactive).
